The source of these data is patent US5340807A, “Tricyclic compounds and intermediates thereof” (priority 1991, dated 1994).

Some results are limits rather than exact numbers.

For one data set, the system named is acyl coenzyme A: cholesterol acyltransferase (ACAT). Description: Test for ACAT inhibitory activity (microsome fraction prepared from rabbit liver). In kind it is biochemical. The conditions noted are these: 10^-6 M, 37° C., 10 minutes. As to the method:
Test for ACAT inhibitory activity The test for ACAT inhibitory activity was performed by a modified method of the method of Brecher et al. Biochim. Biophys. […] The radioactivity of the cholesterol ester spot was determined by a liquid scintillation counter. The radio-activity for each test compound was calculated by the difference between the radioactivity with the microsome fraction and the radioactivity without the microsome fraction. The radioactivity of control was determined in a similar manner without any test compound.
`COC(=O)c1ccc2c(c1)C(C(=O)Nc1c(C(C)C)cccc1C(C)C)c1ccccc1CO2` (stereo not drawn) [Compound 24, 6,11-Dihydro-N-(2,6-diisopropylphenyl)-2-methoxycarbonyl-dibenz[b,e]oxepin-11-carboxamide]: the “Inhibiting rate(%) of ACAT” value came to 90%. Same read-out and setting: as for `CC(C)c1cccc(C(C)C)c1NC(=O)C1c2cc(Br)ccc2OCc2ncccc21` (stereo not drawn) [Compound 42], the figure is 91%. As for `Cc1cc(Cl)c2c(c1C)C(C(=O)Nc1c(C(C)C)cccc1C(C)C)c1ccccc1CO2` (stereo not drawn) [Compound 59, 4-Chloro-6,11-dihydro-N-(2,6-diisopropylphenyl)-1,2-dimethyldibenz[b,e]oxepin-11-carboxamide], the “Inhibiting rate(%) of ACAT” value stood at 100%. The same measure, in the same setting: as for `CC(C)c1cccc(C(C)C)c1NC(=O)C1c2ccccc2COc2c1cc(Br)cc2N(C)C.Cl` (stereo not drawn) [Compound 55, 2-Bromo-6,11-dihydro-N-(2,6-diisopropylphenyl)-4-dimethylaminodibenz[b,e]oxepin-11-carboxamide hydrochloride], the figure is 100%; as for `CSc1cc(C(C)C)c(NC(=O)C2c3ccccc3COc3ccc(Br)cc32)c(C(C)C)c1` (stereo not drawn) [Compound 44, 2-Bromo-6,11-dihydro-N-(2,6-diisopropyl-4-methylthiophenyl)dibenz[b,e]oxepin-11-carboxamide], 95%; as for `COC(=O)c1cc(C)cc2c1OCc1ccccc1C2C(=O)Nc1c(C(C)C)cccc1C(C)C` (stereo not drawn) [Compound 51, Methyl 6,11-dihydro-11-(2,6-diisopropylphenyl)aminocarbonyl-2-methyldibenz[b,e]oxepin-4-carboxylate], 99%. Same read-out and setting: next, `O=C(Nc1c(Cl)cccc1Cl)C1c2ccccc2COc2ccc(Br)cc21` (stereo not drawn) [Compound 39, 2-Bromo-N-(2,6-dichlorophenyl)-6,11-dihydrodibenz[b,e]oxepin-11-carboxamide]: 91%. Still for that read-out and setting: next, `Cc1ccc(C)c2c1OCc1ccccc1C2C(=O)Nc1c(C(C)C)cccc1C(C)C` (stereo not drawn) [Compound 49, 6,11-Dihydro-N-(2,6-diisopropylphenyl)-1,4-dimethyldibenz[b,e]oxepin-11-carboxamide]: 97%.

As for `CC(C)c1cccc(C(C)C)c1NC(=O)C1c2ccccc2COc2ccc(Br)cc21` (single isomer, unassigned) [Compound 61, (+) -2-Bromo-6,11-dihydro-N-(2,6-diisopropylphenyi)dibenz[b,e]oxepin-11-carboxamide], the “Inhibiting rate(%) of ACAT” value is given as 92%. For `CCc1cccc(CC)c1NC(=O)C1c2ccccc2COc2cc(C)c(Br)c(C)c21` (stereo not drawn) [Compound 57, 2-Bromo-N-(2,6-diethylphenyl)-6,11-dihydro-1,3-dimethyldibenz[b,e]oxepin-11-carboxamide], the “Inhibiting rate(%) of ACAT” value is 98%. Same read-out and setting: as for `Cc1ccc(Cl)c2c1C(C(=O)Nc1c(C(C)C)cccc1C(C)C)c1ccccc1CO2` (stereo not drawn) [Compound 64, 4-Chloro-6,11-dihydro-N-(2,6-diisopropylphenyl) -1-methyldibenz[b,e]oxepin-11-carboxamide], the figure is 100%; as for `Cc1ccc2c(c1)C(C(=O)Nc1ccccc1C(C)C)c1ccccc1CO2` (stereo not drawn) [Compound 5, 6,11-Dihydro-N-(2-isopropylphenyl)-2-methyldibenz[b,e]-oxepin-11-carboxamide], 56%; as for `Cc1ccc2c(c1)C(C(=O)Nc1c(C(C)C)cccc1C(C)C)c1ccccc1CC2` (stereo not drawn) [Compound 68, 10,11-Dihydro-N-(2,6-diisopropylphenyl)-3-methyl-5H-dibenz[a,d]cyclohepten-5-carboxamide], 99%.

`CC(C)c1cccc(C(C)C)c1NC(=O)C1c2ccccc2COc2ccc(C#N)cc21` (stereo not drawn) [Compound 23, 2-Cyano-6,11-dihydro-N-(2,6-diisopropylphenyl)dibenz[b,e]-oxepin-11-carboxamide]: the “Inhibiting rate(%) of ACAT” value came out at 69%.

Turning to `CCc1cccc(CC)c1NC(=O)C1c2ccccc2COc2c(C)ccc(C)c21` (stereo not drawn) [Compound 50, 6,11-Dihydro-N-(2,6-diethylphenyl) -1,4-dimethyldibenz[b,e]-oxepin-11-carboxamide], the “Inhibiting rate(%) of ACAT” value is 93%.

As to `CC(C)c1cccc(C(C)C)c1NC(=O)C1c2ccccc2COc2ccc(Br)cc21` (single isomer, unassigned) [Compound 60, (-) -2-Bromo-6,11-dihydro-N-(2,6-diisopropylphenyl) dibenz[b,e]oxepin-11-carboxamide], the “Inhibiting rate(%) of ACAT” value was determined as 99%.

Regarding `Cc1ccc2c(c1)C(C(=O)Nc1c(C)cccc1C)c1ccccc1CO2` (stereo not drawn) [Compound 2, 6,11-Dihydro-2-methyl-N-(2,6-dimethylphenyl) dibenz[b,e]-oxepin-11-carboxamide], the “Inhibiting rate(%) of ACAT” value stood at 66%. On the same count and under the same terms, as for `CC(C)c1cccc(C(C)C)c1NC(=O)C1c2ccccc2CCc2cc(Br)ccc21` (stereo not drawn) [Compound 69, 2-Bromo-10,11-dihydro-N-(2,6-diisopropylphenyl) -5H-dibenz[a,d]cyclohepten-5-carboxamide], the figure is 98%; as for `CC(C)c1cccc(C(C)C)c1NC(=O)C1c2ccccc2COc2c1cc(Br)cc2[N+](=O)[O-]` (stereo not drawn) [Compound 53, 2-Bromo-6,11-dihydro-N-(2,6-diisopropylphenyl)-4-nitrodibenz[b,e]oxepin-11-carboxamide], 100%. On the same count and under the same terms, as for `Cc1cc(C)c2c(c1)OCc1ccccc1C2C(=O)Nc1c(C(C)C)cccc1C(C)C` (stereo not drawn) [Compound 62, 6,11-Dihydro-N-(2,6-diisopropylphenyl)-1,3-dimethyldibenz-[b,e]oxepin-11-carboxamide], the figure is 100%; as for `CSc1cc(C(C)C)c(NC(=O)C2c3ccccc3COc3ccc(C)cc32)c(C(C)C)c1` (stereo not drawn) [Compound 30, 6,11-Dihydro-N-(2,6-diisopropyl-4-methylthiophenyl)-2-methyldibenz[b,e]oxepin-11-carboxamide], 78%. Still for that read-out and setting: as for `Cc1cc2c(c(C)c1Br)C(C(=O)Nc1c(C(C)C)cccc1C(C)C)c1ccccc1CO2` (stereo not drawn) [Compound 56, 2-Bromo-6,11-dihydro-N-(2,6-diisopropylphenyl)-1,3-dimethyldibenz[b,e]oxepin-11-carboxamide], the figure is 99%; as for `CCc1cccc(CC)c1NC(=O)C1c2ccccc2COc2ccc(C)cc21` (stereo not drawn) [Compound 3, N-(2,6-Diethylphenyl) -6,11-dihydro-2-methyldibenz[b,e]-oxepin-11-carboxamide], 77%. On to `O=C(Nc1c(Cl)cccc1Cl)C1c2ccccc2COc2cc(Br)ccc21` (stereo not drawn) [Compound 28, 3-Bromo-N-(2,6-dichlorophenyl)-6,11-dihydrodibenz[b,e]oxepin-11-carboxamide], for which the “Inhibiting rate(%) of ACAT” value came to 52%. Same read-out and setting: as for `Cc1cc2c(cc1C)C(C(=O)Nc1c(C(C)C)cccc1C(C)C)c1ccccc1CO2` (stereo not drawn) [Compound 48, 6,11-Dihydro-N-(2,6-diisopropylphenyl)-2,3-dimethyldibenz[b,e]oxepin-11-carboxamide], the figure is 96%.

Another data set has as its system male ddy strain mice. Description: Test for acute toxicity (minimum lethal dose, oral). The conditions noted are these: mortality observed seven days after administration. The class given is in vivo. The method, then: Groups of 3 male ddy strain mice weighing 20±1 g were used. The test compounds were orally administered. Seven days after administration, the mortality was observed and the minimum lethal dose (MLD) was determined.
Turning to `COC(=O)c1ccc2c(c1)C(C(=O)Nc1c(C(C)C)cccc1C(C)C)c1ccccc1CO2` (stereo not drawn) [Compound 24, 6,11-Dihydro-N-(2,6-diisopropylphenyl)-2-methoxycarbonyl-dibenz[b,e]oxepin-11-carboxamide], the “Acute Toxicity (MLD), minimum lethal dose” value was more than 300 mg/kg. Same read-out and setting: as for `Cc1ccc2c(c1)C(C(=O)Nc1ccccc1C(C)C)c1ccccc1CO2` (stereo not drawn) [Compound 5, 6,11-Dihydro-N-(2-isopropylphenyl)-2-methyldibenz[b,e]-oxepin-11-carboxamide], the figure is more than 300 mg/kg; as for `CC(C)c1cccc(C(C)C)c1NC(=O)C1c2ccccc2COc2ccc(C#N)cc21` (stereo not drawn) [Compound 23, 2-Cyano-6,11-dihydro-N-(2,6-diisopropylphenyl)dibenz[b,e]-oxepin-11-carboxamide], more than 300 mg/kg.

For the molecule `CCc1cccc(CC)c1NC(=O)C1c2ccccc2COc2ccc(C)cc21` (stereo not drawn) [Compound 3, N-(2,6-Diethylphenyl) -6,11-dihydro-2-methyldibenz[b,e]-oxepin-11-carboxamide], the “Acute Toxicity (MLD), minimum lethal dose” value is given as more than 300 mg/kg. Same read-out and setting: as for `O=C(Nc1c(Cl)cccc1Cl)C1c2ccccc2COc2cc(Br)ccc21` (stereo not drawn) [Compound 28, 3-Bromo-N-(2,6-dichlorophenyl)-6,11-dihydrodibenz[b,e]oxepin-11-carboxamide], the figure is more than 300 mg/kg.
